# Assays:
# α2A-AR [1] = molecular target: T1, α2A-AR (Homo sapiens, UniProt P08913); experiment: TRUPATH BRET2 G-protein activation; format: cell-based; conditions: agonist; Gi1, GoA, Gz
# T1 sequence (P08913 1-465): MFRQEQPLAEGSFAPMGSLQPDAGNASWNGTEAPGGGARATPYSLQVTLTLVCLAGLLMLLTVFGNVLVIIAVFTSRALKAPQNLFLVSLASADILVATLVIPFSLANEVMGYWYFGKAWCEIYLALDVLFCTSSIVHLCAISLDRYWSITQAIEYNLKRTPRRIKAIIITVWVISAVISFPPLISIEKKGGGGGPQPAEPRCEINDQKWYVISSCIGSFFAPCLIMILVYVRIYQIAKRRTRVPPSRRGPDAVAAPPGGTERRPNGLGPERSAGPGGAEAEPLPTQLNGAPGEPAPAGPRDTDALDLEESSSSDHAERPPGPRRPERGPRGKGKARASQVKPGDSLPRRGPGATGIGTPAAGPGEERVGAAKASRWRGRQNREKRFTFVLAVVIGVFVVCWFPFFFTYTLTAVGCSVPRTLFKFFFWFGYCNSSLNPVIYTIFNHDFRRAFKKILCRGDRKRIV
# [2] = molecular target: T2, kappa opioid receptor (κOR) (Homo sapiens, UniProt P41145); experiment: Gi-GloSensor cAMP assay; format: cell-based
# [3] = molecular target: T2, kappa opioid receptor (κOR); experiment: Gi-GloSensor cAMP assay; format: cell-based; remark: listed apart in the source
# [4] = molecular target: T2, kappa opioid receptor (κOR); experiment: radioligand competition binding, 3H-U69593
# α2A-AR [5] = molecular target: T1, α2A-AR; experiment: radioligand competition binding; conditions: panel labelled α2-AR
# α2A-AR [6] = molecular target: T1, α2A-AR; experiment: Gi-GloSensor cAMP assay; format: cell-based; conditions: read-out: potency (pEC50) (converted); full agonist; printed pEC50 of 7.47
Compound,pEC50 (α2A-AR [1]),pEC50 ([2]; agonist),pEC50 ([2]; partial agonist),EC50 [3] [nM],Ki [4] [nM],pKi (α2A-AR [5]),EC50 (α2A-AR [6]) [nM]
Cc1ccc(O)c(C)c1NC1=NCCCS1 [3-hydroxy-xylazine],"Xylazine, its metabolites, as well as other relevant adrenergic agonists exhibited agonist activity at α2A-AR","3-hydroxy-xylazine was as efficacious, though less potent, as xylazine and salvinorin A",–,–,–,–,–
Cc1cc(O)cc(C)c1NC1=NCCCS1 [4-hydroxy-xylazine],"Xylazine, its metabolites, as well as other relevant adrenergic agonists exhibited agonist activity at α2A-AR",–,4-hydroxy-xylazine was less efficacious at κOR overall,–,–,–,–
Cc1cccc(C)c1NC1=NCCCS1 [xylazine],–,–,–,1400,470,Radioligand competitive binding assay confirms xylazine activity at κOR (A) and α2-AR (B),34

# Source: article PMC11290297 (Addiction neuroscience, 2024)
